# Measured values published in patent US20200360391A1, “Medicinal Composition for Treating Intractable Heart Disease” (Osaka University, priority 2016, published 2020).
# “Also recorded” adds a separate entry of the source. Counter-ions that a name gives are not always drawn.
# Key:
# [1] = tested on: rat coronary artery complete ischemia model; test: Model of ischemia (MI) by rat coronary artery complete ligation (Tests 1 and 2): echocardiography, body weight; conditions: for value of change in E.F. compared with E.F. on Day 1 / value of change in F.S. compared with F.S. on Day 1: B-MS 100, C-MS 50, F-MS 30 mg/kg s.c. single injection
# [2] = tested on: rats; conditions: subcutaneous administration in rats; cited from earlier work
# [3] = tested on: spontaneous dilated cardiomyopathy J2N-k baby hamsters; test: J2N-k baby hamsters (Test 4): administration alone or in combination, echocardiography, body weight; format: in vivo, hamster; conditions: for % FS / EF (%) / value of change in E.F. compared with E.F. at 0 W / value of change in F.S. compared with F.S. at 0 W: Test 4, dose O 0.17, C 3.3, E 15, orally twice daily, mean ± S.D.
# Experimental: δ-Glycan-deficient spontaneous dilated cardiomyopathy (J2N-k) male hamsters (Japan SLC, Inc.) were delivered at 4 weeks of age. After a 1-week quarantine/acclimation, echocardiography was performed. The hamsters were grouped by stratified random assignment based on the EF values and the body weights so that each administration group was equalized.
# Each test substance was individually administered twice daily (at an interval of 8 hours or more) by oral gavage, and echocardiography was performed 4 and 8 weeks after the start of administration (before dissection). Differences from the value before the start of administration (at the time of grouping) (amount of change: A) in each group were examined, and the cardiac function (EF value, FS %, etc.) was compared with that in the vehicle group (Group 1).
# The doses were set according to the dose-setting basis in Test 3, and similarly orally administered twice daily. Effects of administration of combinations of two or three of carvedilol, which is a β-blocker widely used clinically, and ozagrel and/or pirfenidone were examined.
# [4] = cited from earlier work
# [5] = tested on: spontaneous dilated cardiomyopathy (J2N-k) hamster model; test: Spontaneous dilated cardiomyopathy (J2N-k) hamster model, 8-week administration from 20 weeks of age (Tests 1-3): echocardiography, body weight; conditions: for LVIDs 8 W: hydrochloride hydrate
# In short: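 Male J2N-k δ-glycan-deficient hamsters (delivered at 18 weeks; 2-week acclimation) were dosed by oral gavage twice daily for 8 weeks in 0.5% CMC-Na (G in distilled water; 5 mL/kg) at human-equivalent doses, e.g. cilostazol 1.7 mg/kg. Camostat PLGA preparation was given 10 mg/kg s.c. every 4 weeks. Echocardiographic EF/FS changes from baseline were assessed at 4 and 8 weeks versus vehicle.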
# [6] = tested on: rats; conditions: cited from earlier work
# [7] = MI Test 1, NOAEL doses, 7 Day, mean ± S.D.
# [8] = MI Test 1, NOAEL doses, 14 Day, mean ± S.D.
# [9] = MI Test 1, NOAEL doses, 29 Day, mean ± S.D.
# [10] = MI Test 2, 14 Day, B 150, G 5, I 30, C 10 mg/kg p.o. b.i.d., mean ± S.D.
# [11] = MI Test 2, 29 Day, B 150, G 5, I 30, C 10 mg/kg p.o. b.i.d., mean ± S.D.
compound,measurement,setting,value
"O=C(O)/C=C/c1ccc(Cn2ccnc2)cc1 [Compound C, Ozagrel hydrochloride hydrate]",Action on left ventricular systolic function,"[1]; MI Test 1, 28-day repeated oral administration b.i.d., NOAEL-based doses",suppression action on the deterioration of left ventricular systolic function
same,Body weight,"[1]; MI Test 1, NOAEL doses, 1 Day (grouping), mean ± S.D.",234.8 ± 8.3 g
same,% FS: value of change compared with the value on Day 1,[1]; [7],0%
same,Body weight,[1]; [7],240.0 ± 9.3 g
same,EF: value of change compared with the value on Day 1,[1]; [7],-1%
same,% FS: value of change compared with the value on Day 1,[1]; [8],-1%
same,Body weight,[1]; [8],261.2 ± 10.8 g
same,EF: value of change compared with the value on Day 1,[1]; [8],-2%
same,Body weight,"[1]; MI Test 1, NOAEL doses, 21 Day, mean ± S.D.",278.9 ± 12.5 g
same,% FS: value of change compared with the value on Day 1,[1]; [9],-3%
same,Body weight,[1]; [9],299.8 ± 13.9 g
same,EF: value of change compared with the value on Day 1,[1]; [9],-5%
same,EF actual measured value and/or amount of change compared with control,"[1]; MI Test 2, Day 14 and Day 29",significantly higher
same,"Values of cardiac function (EF, FS %) compared with control","[1]; MI Test 2, oral b.i.d. 4 weeks or single subcutaneous administration",significantly higher
same,Body weight,"[1]; MI Test 2, 1 Day, B 150, G 5, I 30, C 10 mg/kg p.o. b.i.d., B MS 100, C MS 50, I MS 30 mg/kg s.c. single injection, mean",240.1 g
same,Body weight,"[1]; MI Test 2, 7 Day, B 150, G 5, I 30, C 10 mg/kg p.o. b.i.d., B MS 100, C MS 50, I MS 30 mg/kg s.c. single injection, mean",245.7 g
same,Body weight,"[1]; MI Test 2, 14 Day, B 150, G 5, I 30, C 10 mg/kg p.o. b.i.d., B MS 100, C MS 50, I MS 30 mg/kg s.c. single injection, mean",273.3 g
same,value of change in E.F. compared with E.F. on Day 1,[1]; [10],<−4.9 ± 2.3> %
same,value of change in F.S. compared with F.S. on Day 1,[1]; [10],<−2.7 ± 1.3> %
same,Body weight,"[1]; MI Test 2, 21 Day, B 150, G 5, I 30, C 10 mg/kg p.o. b.i.d., B MS 100, C MS 50, I MS 30 mg/kg s.c. single injection, mean",292.8 g
same,Body weight,"[1]; MI Test 2, 29 Day, B 150, G 5, I 30, C 10 mg/kg p.o. b.i.d., B MS 100, C MS 50, I MS 30 mg/kg s.c. single injection, mean",310.4 g
same,value of change in E.F. compared with E.F. on Day 1,[1]; [11],<−10.0 ± 3.9> %
same,value of change in F.S. compared with F.S. on Day 1,[1]; [11],<−5.3 ± 2.1> %
same,LD50,[2],2049 mg/kg
same,Action on decrease in left ventricular systolic function,"[3]; Test 4, clinical doses p.o. b.i.d., 8 weeks, hydrochloride hydrate",significant suppression action on a decrease in left ventricular systolic function; also recorded: action of significantly suppressing a decrease in left ventricular systolic function
same,Body weight 3 W,"[3]; Test 4, p.o. b.i.d., clinical dose",85.4 g
same,% FS,[3]; 0 W (start of administration),39.1 ± 2.7%
same,EF (%),[3]; 0 W (start of administration),77.3 ± 2.9%
same,% FS,[3]; 4 W,34.9 ± 1.5%
same,EF (%),[3]; 4 W,72.3 ± 2.0%
same,value of change in E.F. compared with E.F. at 0 W,[3]; 4 W,<−5.0 ± 1.4> %
same,value of change in F.S. compared with F.S. at 0 W,[3]; 4 W,<−4.2 ± 1.4> %
same,% FS,[3]; 8 W,30.7 ± 2.0%
same,EF (%),[3]; 8 W,66.6 ± 2.8%
same,value of change in E.F. compared with E.F. at 0 W,[3]; 8 W,<−10.7 ± 2.0> %
same,value of change in F.S. compared with F.S. at 0 W,[3]; 8 W,<−8.4 ± 1.6> %
same,Safety at the daily amount,"[4]; camostat 600 mg daily, ozagrel 400 mg daily",no safety problems except for slightly prolonged bleeding time
same,Abdominal / stomach / gastric discomfort cases,"[4]; human, in vivo",0.1%
same,Bleeding tendency cases,"[4]; human, in vivo",0.1%
same,Elevated AST (GOT) and/or ALT (GPT) / liver enzyme cases,"[4]; human, in vivo",0.3%
same,Itching / pruritus cases,"[4]; human, in vivo",0.2%
same,Nausea cases (cilostazol: nausea/vomiting),"[4]; human, in vivo",0.3%
same,Rash cases,"[4]; human, in vivo",0.2%
same,Cases with side effects (including laboratory test value abnormality),[4]; share of cases evaluated for safety,2.0%
same,LVIDd 4 W,"[5]; Test 1, p.o. b.i.d.",7.1 mm
same,LVIDd 8 W,"[5]; Test 1, p.o. b.i.d.",7.4 mm
same,LVIDs 4 W,"[5]; Test 1, p.o. b.i.d.",5.9 mm
same,LVIDs 8 W,"[5]; Test 1, p.o. b.i.d.",6.1 mm
same,LVIDs 8 W,"[5]; Test 1, p.o. b.i.d., listed as ozagrel",significantly lower
same,"Cardiac function (EF, FS %) actual measured value or change rate compared with control, 4 W value","[5]; Test 3, clinical dose",significant cardiac function improvement effect
same,Cardiac function improvement effect,"[5]; Test 3, clinical dose, summary",cardiac function improvement effect was observed
same,Minimal effective dose (screening 2),"[5]; mg/kg twice per day, oral preparation",3.3 mg/kg
same,No-observed-effect level,"[6]; rats, 3 months",150 mg/kg
same,Dose at which toxic findings were observed,"[6]; repeated oral administration in rats, duration per compound",≥ 500 mg/kg
